According to patent US5478946A, “Guanidino compounds as regulators of nitric oxide synthase” (Abbott Laboratories, priority 1993, dated 1995):

Legend:
[1] = biological target: T1, Type III NOS (BAE homogenate preparation) (Bos taurus, UniProt P29473); experiment: [3H]-Arginine to [3H]-Citrulline conversion, BAE homogenate preparation (Type III NOS); assay type: biochemical, bovine; conditions: for IC50: read-out: Inhibition of [3H]-Citrulline Formation IC50, BAE Preparation
T1 construct: partially purified isozyme III from bovine aortic endothelial cells (BAE cells); endogenous in cells; host or cells: bovine aortic endothelial (BAE) cells
Text: (§1) The enzyme NO synthase produces EDRF/NO and citrulline from L-arginine (Bredt and Snyder, Proc. Nat'l. Acad. Sci. USA, 1989, 87: 682-5). The enzymatic generation of EDRF/NO is monitored by measuring the conversion of [^3 H]-L-arginine to [^3 H]-L-citrulline. An inhibitor of this specific enzymatic reaction lowers the conversion rate and, thus, the amount of [^3 H]-L-citrulline produced. Likewise, a compound acting as a substrate would compete with L-arginine and thereby lower the conversion rate.
(§2) The conversion of L-arginine to L-citrulline was assayed as reported previously (Bredt and Snyder, Proc. Nat'l Acad Sci USA, 1989, 87: 682-5) with minor modifications. Briefly, samples of partially purified NO synthase, 50-100 μg of protein or 20 μL of cytosol (alternatively cytosolic preparations from RAW 264.7 cells, a murine monocyte-macrophage cell line, induced for 16 hours with 10 μg/mL medium of Lipopolysaccharide (LPS), or partially purified (phosphocellulose column) type I isozyme from rat brain cerebellum, or partially purified isozyme III from bovine aortic endothelial cells (BAE cells)) were incubated for 20 minutes (3 minutes in the cases of purified enzyme preparations) at 25° C. in the presence of 10 μM L-[2,3-^3 H]arginine (55 Ci /mmol) (containing 34 nM (0.2 μCi)), 1 mM NADPH, and 2 Mm CaCl2 in a final volume of 100 μL. The reaction was stopped by adding 1 mL of stop buffer (2 mM EGTA, 2 mM EDTA 20 mM Hepes, pH 5.5). The total volume was then applied to a 1 mL Dowex AG 50 WX-8 column (Na^+ form, Bio-Rad) that had been pre-equilibrated with the stop buffer. L-[2,3-^3 H]Citrulline was eluted (2×) with 0.5 mL of stop buffer and radioactivity was determined by liquid scintillation counting.
(§3) The following Tables present data on the inhibition of [^3 H]-citrulline formation from [^3 H]-L-arginine by the compounds of the invention in various preparations representative of the isoforms of NOS, Types I, II, and III NOS as represented by rat brain cytosol, […] macrophage cell cytosol, and BAE homogenate preparation respectively.

[2] = biological target: T2, Type II NOS (RAW macrophage cell cytosol) (Mus musculus, UniProt P29477); experiment: [3H]-Arginine to [3H]-Citrulline conversion, RAW cell cytosol (Type II NOS); assay type: biochemical, murine; conditions: for inhibition at 100 µM / IC50: LPS induced; for IC50: read-out: Inhibition of [3H]-Citrulline Formation IC50, RAW Cell cytosol
T2 construct: cytosolic preparations from RAW 264.7 cells; endogenous in cells; host or cells: RAW 264.7 cells, LPS-induced for 16 hours
Text: as §1, §2, §3

[3] = biological target: T3, Type I NOS (rat brain cytosol) (Rattus norvegicus, UniProt P29476); experiment: [3H]-Arginine to [3H]-Citrulline conversion, rat brain cytosol (Type I NOS); assay type: biochemical; conditions: for IC50: read-out: Inhibition of [3H]-Citrulline Formation IC50, Rat Brain Cytosol
T3 construct: type I isozyme from rat brain cerebellum; from tissue; host or cells: rat brain (cytosol; cerebellum, phosphocellulose-purified)
Text: as §1, §2, §3

[4] = read-out: Percent Inhibition of [3H]-Citrulline Formation, RAW Cell Cytosol
[5] = read-out: Percent Inhibition of [3H]-Citrulline Formation, Rat Brain Cytosol
[6] = read-out: Percent Inhibition of [3H]-Citrulline Formation, BAE Preparation

Row | Structure (SMILES) | IC50 [1] [µM] | inhibition at 100 µM [2, 4] [%] | IC50 [2] [µM] | inhibition at 100 µM [3, 5] [%] | IC50 [3] [µM] | inhibition at 100 µM [1, 6] [%] | inhibition at 30 µM ([1]; tested at 30 μM, read-out: Percent Inhibition of [3H]-Citrulline Formation, BAE Preparation) [%] | inhibition at 10 µM ([2]; tested at 10 μM, read-out: Percent Inhibition of [3H]-Citrulline Formation, RAW Cell Cytosol) [%] | inhibition at 30 µM ([3]; tested at 30 μM, read-out: Percent Inhibition of [3H]-Citrulline Formation, Rat Brain Cytosol) [%]
1 | CC(C)(C)OC(=O)N1[C@@H](/C=C/CNC(=N)N[N+](=O)[O-])COC1(C)C [Example 1, 3-(1,1 -Dimethylethyl)-(S)-4-(3-N^G -nitroguanidinopropen-1, E-yl)-2,2-dimethyl-3-oxazolidinecarboxvlate] | > 100 | 0 | > 100 | 6 | > 100 |  |  |  | 
2 | N=C(NC/C=C/[C@H](N)CO)N[N+](=O)[O-] [Example 2, N^G -Nitroguanidinyl-4(S)-amino-pent-2,E-ene-5-ol] | 80 | 14 | > 100 | 80 | 40 |  |  |  | 
3 | CC(C)(C)OC(=O)N1[C@@H](/C=C/CNC(=N)N)COC1(C)C [Example 3, 3-(1,1-Dimethylethyl)-(S)-4-(3-guanidinopropen-1,E-yl)-2,2-dimethyl-3-oxazolidinecarboxylate] | > 100 | 68 | 40 | 35 | > 100 |  |  |  | 
4 | N=C(N)NC/C=C/[C@H](N)CO [Example 4, 1-Guanidirlyl-4(S)-amino-pent-2,E-ene-5-ol] | > 100 | 50 | 100 |  |  | 22 |  |  | 
5 | N=C(NN)NC/C=C/[C@H](N)CO [Example 6, N^G -Aminoguanidinyl-4(S)-amino-pent-2,E-ene-5-ol] | > 30 |  | 22 |  | > 30 |  | 0 | 46 | 0
6 | CC(C)(C)OC(=O)N1[C@@H](/C=C/CNC(=N)NO)COC1(C)C [Example 7, 3-(1,1-Dimethylethyl)-(S)-4-(3-N^G -hydroxyguanidinopropen-1,E-yl)-2.2-dimethyl-3-oxazolidinecarboxylate] |  | 17 | > 100 |  |  |  |  |  | 
7 | N=C(NO)NC/C=C/[C@H](N)CO [Example 8, N^G -Hydroxyguanidinyl-4(S)-amino-pent-2,E-ene-5-ol] |  | 13 | > 100 | 23 | > 100 |  |  |  | 
8 | CNC(=N)NC/C=C/[C@H]1COC(C)(C)N1C(=O)OC(C)(C)C [Example 9, 3-(1,1-Dimethylethyl)-(S)-4-(3-N^G -methylguanidinoorooen-1,E-yl)-2.2-dimethyl-3-oxazolidinecarboxylate] |  | 47 | 100 | 51 | 80 |  |  |  | 
9 | CNC(=N)NC/C=C/[C@H](N)CO [Example 10, N^G -Methylguanidinyl-4(S)-Amino-pent-2 ,E-ene-5-ol] | > 100 | 43 | > 100 | 74 | 30 | 40 |  |  | 
10 | CCNC(=N)NC/C=C/[C@H]1COC(C)(C)N1C(=O)OC(C)(C)C [Example 11, 3-(1,1-Dimethylethyl)-(S)-4-(3-N^G -ethylguanidinopropen-1,E-yl)-2,2-dimethyl-3-oxazolidinecarboxylate] |  | 41 | > 100 | 20 | > 100 |  |  |  | 
11 | CCNC(=N)NC/C=C/[C@H](N)CO [Example 12, N^G Ethylguanidinyl-4(S)-Amino-pent-2,E-ene-5-ol] | > 100 | 8 | > 100 | 70 | 30 | 5 |  |  | 
12 | C/C(=C\[C@H]1COC(C)(C)N1C(=O)OC(C)(C)C)CNC(=N)N[N+](=O)[O-] [Example 14, 3-(1,1-Dimethylethyl)-(S)-4-(3-nitroguanidino-2-methyl-propen-1,E-yl)-2,2-dimethyl-3-oxazolidinecarboxylate] | > 100 | 0 | > 100 | 0 | > 100 |  |  |  | 
13 | C/C(=C\[C@H](N)CO)CNC(=N)N[N+](=O)[O-] [Example 15, N^G -Nitroguanidinyl-4(S)-Amino-2-methyl-pent-2,E-ene-5-ol] | 100 | 66 | 40 | 90 | 10 | 50 |  |  | 
14 | CNC(=N)NC/C=C/[C@@H](CO)NC(=O)OC(C)(C)C [Example 17, N^4, Boc-N^G -Methylguanidinyl-4(S)-Amino-pent-2,E-ene-5-ol] |  | 6 | > 100 | 18 | > 100 |  |  |  | 
15 | CNC(=N)NC/C=C/[C@@H]1COC(C)(C)N1C(=O)OC(C)(C)C [Example 18, 3-(1,1-Dimethylethyl)-(R)-4-(3-N^G -methylguanidinopropen-1,E-yl)-2,2-dimethyl-3-oxazolidinecarboxylate] |  | 9 | > 100 | 17 | > 100 |  |  |  | 
16 | CNC(=N)NC/C=C/[C@@H](N)CO [Example 19, N-^G -Methylguanidinyl-4(R)-Amino-pent-2,E-ene,5-ol] | > 100 | 27 | > 100 | 77 | 35 | 0 |  |  | 
17 | C/C(=C\[C@H]1COC(C)(C)N1C(=O)OC(C)(C)C)CNC(=N)N [Example 20, 3-(1,1-Dimethylethyl)-(S)-4-(3-guanidino-2-methyl-propen-1,E-yl)-2,2-dimethyl-3-oxazolidinecarboxylate] |  | 45 | 100 | 27 | > 100 |  |  |  | 
18 | C/C(=C\[C@H](N)CO)CNC(=N)N [Example 21, N^G -Guanidinyl-4(S)-Amino-2-methyl-pent-2,E-ene-5-ol] | 100 | 94 | 30 | 86 | 20 | 50 |  |  | 
19 | CC(C)(C)OC(=O)N1[C@H](/C=C/CNC(=N)N)COC1(C)C [Example 22, 3-(1,1-Dimethylethyl)-(R)-4-(3-guanidinopropen-1.E-yl)-2,2-dimethyl-3-oxazolidinecarboxylate] | 100 | 97 | < 100 | 70 | 40 | 50 |  |  | 
20 | CC(C)(C)OC(=O)N1[C@@H](/C=C(/CNC(=N)N)Cc2ccccc2)COC1(C)C [Example 24, 3-(1,1-Dimethylethyl)-(S)-4-(3,guanidino-2-benzyl-propen-1,E,yl)-2,2-dimethyl--oxazolidinecarboxylate] |  | 20 | > 100 | 35 | > 100 |  |  |  | 
21 | N=C(N)NC/C(=C/[C@H](N)CO)Cc1ccccc1 [Example 25, N^G -Guanidinyl-4(S)-Amino-2-benzyl-pent-2,E-ene-5-ol] | > 100 | 20 | > 100 | 80 | 40 | 14 |  |  | 
22 | CNC(=N)NC/C(C)=C/[C@H](N)CO [Example 27, N^G -Methylguanidinyl-4(S)-Amino-2-methyl-pent-2,E-ene-5-ol] | > 100 | 97 | 20 | 86 | 20 | 46 |  |  | 
